Measured values published in US20250127813A1, “COMBINATION DRUG” (OTSUKA PHARMACEUTICAL CO., LTD., priority 2021, published 2025).
“Also recorded” adds a separate entry of the source.

Key:
Type in all cases: in vivo, mouse
NALM6-luc2 = experiment: Combination of tolinapant and CD19 CAR-T against a low volume of tumor (NALM6-luc2, NOG mice)
Description: For the measurement, IVIS (trademark) Lumina X5 was used.

A375 = experiment: Combination of tolinapant and NY-ESO-1 TCR-T in A375 subcutaneous tumor-bearing NOG mice
Method: Each mouse was identified with a number attached to the tail of the mouse.
The evaluation period was set to 2 weeks, and grouping and pharmacological evaluation were performed based on the results of tumor diameter measurement using a caliper. The tumor diameter and body weight were measured twice a week.
Using trypsin-EDTA-PBS(−), the cultured cells were detached and collected and then centrifuged (4° C., 1200 rpm, 5 min). After removing the supernatant, D-PBS (−) was added and the cells were resuspended and washed by centrifugation in the same manner as above. This washing operation was further repeated twice. After a portion of the cell suspension was taken and the number of viable cells was counted using AOPI Staining Solution, a cell suspension at 1×10^7 cells/mL was prepared using D-PBS(−), After the preparation, the cell suspension was stored in ice until transplantation. […]
On the eighth day after the transplantation, the long diameter and the short diameter were measured and the tumor volume was calculated. […]
The tumor diameter was determined by measuring the short diameter and the long diameter using an electronic caliper (produced by Mitutoyo Corporation). After tumor cell transplantation, the tumor diameter was measured twice a week.
Based on the measurement results of the tumor diameter, the tumor volume (TV: tumor volume) was calculated using the following formula: […]

NALM6 = experiment: Combination of tolinapant and CD19 CAR-KHYG-1 in NALM6 subcutaneous tumor-bearing NOG mice
Method: Each mouse was identified with a number attached to the tail of the mouse. During the breeding period, the mice were housed in groups of 5 mice each and bred in a breeding room at a temperature of 24° C.
After grouping, CD19 CAR KHYG-1 cells and KHYG-1 cells were intratumorally administered 4 times in total according to the group constitution.
The evaluation period was set up to day 17. Grouping and pharmacological evaluation were performed using the results of tumor volume measurement with a caliper as an indicator. The tumor volume measurement and body weight measurement were performed twice a week and before each administration. […]
On the 21th day after the transplantation, the long diameter and the short diameter were measured and the tumor volume was calculated. […]
4) For KHYG-1 cell administration solution and CD19 CAR-KHYG-1 cell administration solution, the number of viable cells was counted and a cell suspension with the cell density being adjusted according to the group composition table was prepared and intratumorally administered twice a week at 0.1 mL/body (4 times in total).
The tumor diameter was determined by measuring the short diameter and the long diameter using an electronic caliper (produced by Mitutoyo Corporation). After tumor cell transplantation, the tumor diameter was measured twice a week. […]

C[C@@H]1CN(CC(=O)N2CC(C)(C)c3nc(CO)c(Cc4ccc(F)cc4)cc32)[C@@H](CN2CCOC[C@H]2C)CN1 [Tolinapant, 1-[6-[(4-fluorophenyl)methyl]-5-(hydroxymethyl)-3,3-dimethyl-2H-pyrrolo[3,2-b]pyridin-1-yl]-2-[(2R,5R)-5-methyl-2-[[(3R)-3-methylmorpholin-4-yl]methyl]piperazin-1-yl]ethanone]
reduction in the number of CAR-T cells achieved by the combination (NALM6-luc2; 2×10^4 cells + tolinapant versus 1×10^6 cells alone, suggested possibility): at least 50 fold | combination effect of tolinapant and CD19 CAR-T on a low volume of tumor (NALM6-luc2; tolinapant 16 mg/kg qd po + CD19 CAR-T): a strong combination effect was observed | effect of tolinapant + 1×10^5 cells CD19 CAR-T compared with 1×10^6 cells CD19 CAR-T alone (NALM6-luc2; tolinapant 16 mg/kg qd po + CD19 CAR-T 1×10^5 cells/body iv): an effect equivalent to the effect achieved by using 1×10^6 cells of CD19 CAR-T alone was observed on day 17 | effect of tolinapant + 2×10^4 cells CD19 CAR-T compared with 1×10^6 cells CD19 CAR-T alone (NALM6-luc2; tolinapant 16 mg/kg qd po + CD19 CAR-T 2×10^4 cells/body iv): an effect equivalent to the effect achieved by using 1×10^6 cells of CD19 CAR-T alone was observed on day 21 | tumor volume on day 15, combination versus either agent alone (A375; tolinapant 16 mg/kg po + NY-ESO-1 TCR-T 3×10^6 cells/body iv, day 15): a significant difference was observed | tumor regression with NY-ESO-1 TCR-T and tolinapant both administered (A375; tolinapant 16 mg/kg po + NY-ESO-1 TCR-T iv, compared with NY-ESO-1 TCR-T alone): a higher degree of tumor regression was confirmed; also recorded: synergistic effects based on the combined use were shown; also recorded: significant, highly reproducible results | combination effect of tolinapant and CD19 CAR-KHYG-1 (tumor volume) (NALM6; tolinapant 16 mg/kg po every day + CD19 CAR-KHYG-1 1×10^7 cells/body intratumoral Day 0, 4, 7, 11, evaluated for 17 days): A significant combination effect was observed; also recorded: a proliferation suppression effect was clearly shown on day 7 and thereafter; also recorded: significant combination effects were observed on day 17; also recorded: significant, highly reproducible results | antitumor effect of tolinapant alone (NALM6; tolinapant alone, 16 mg/kg po every day): no antitumor effects were observed
